Experiments:
Assay in all cases: relative viability (nuclei count vs DMSO), 5 days (fraction); higher = more cells survive
EMC-BAC-2 = system: EMC-BAC-2
How it was run: (§1)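 Lung cancer cell lines were seeded in 1536-well plates and dosed by pin tool the next day, with either a single drug or a fixed anchor-drug dose combined with five library-drug doses (not always all listed) spaced in √10 steps. Five days later, one step fixed the cells and stained their nuclei (final 0.05% Triton X-100, 1% formaldehyde, 1 ug/ml Hoechst), and nuclei were counted on 4× images. Relative viability is the nuclei count in treated wells divided by the count in vehicle wells, and each value is the median of duplicate plates.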

HOP-62 = system: HOP-62
How it was run: as §1

NCI-H1975 = system: NCI-H1975
How it was run: as §1

NCI-H322M = system: NCI-H322M
How it was run: as §1

HCC-78 = system: HCC-78
How it was run: as §1

NCI-H2085 = system: NCI-H2085
How it was run: as §1

LXF-289 = system: LXF-289
How it was run: as §1

HCC-15 = system: HCC-15
How it was run: as §1

NCI-H522 = system: NCI-H522
How it was run: as §1

NCI-H2126 = system: NCI-H2126
How it was run: as §1

NCI-H1755 = system: NCI-H1755
How it was run: as §1

UMC-11 = system: UMC-11
How it was run: as §1

NCI-H1915 = system: NCI-H1915
How it was run: as §1

NCI-H2023 = system: NCI-H2023
How it was run: as §1

NCI-H441 = system: NCI-H441
How it was run: as §1

COR-L 105 = system: COR-L 105
How it was run: as §1

ChaGo-K-1 = system: ChaGo-K-1
How it was run: as §1

ABC-1 = system: ABC-1
How it was run: as §1

CAL-12T = system: CAL-12T
How it was run: as §1

NCI-H3122 = system: NCI-H3122
How it was run: as §1

NCI-H358 = system: NCI-H358
How it was run: as §1

NCI-H1993 = system: NCI-H1993
How it was run: as §1

NCI-H1666 = system: NCI-H1666
How it was run: as §1

EPLC-272H = system: EPLC-272H
How it was run: as §1

In the case of `C[C@@H]1CN(CC(=O)Nc2ccc3c(c2)Cc2cccc(-c4cc(=O)cc(N5CCOCC5)o4)c2S3)C[C@H](C)O1` + O=C(CCCCCCC(=O)Nc1ccccc1)NO [Vorinostat] (partner 1 µM), the relative viability (EMC-BAC-2; first compound 0.04 µM) is reported as 0.397, the relative viability (EMC-BAC-2; first compound 0.1265 µM) is reported as 0.468 and the relative viability (EMC-BAC-2; first compound 0.4 µM) is reported as 0.469. The relative viability (EMC-BAC-2; first compound 4 µM) was 0.54, the relative viability (HOP-62; first compound 0.04 µM) was 0.477 and the relative viability (HOP-62; first compound 0.1265 µM) was 0.648. For the same molecule, the relative viability (HOP-62; first compound 0.4 µM) was 0.687, the relative viability (HOP-62; first compound 4 µM) was 0.509 and the relative viability (NCI-H1975; first compound 0.04 µM) was 0.68. It also gave a relative viability (NCI-H1975; first compound 0.1265 µM) of 0.717, a relative viability (NCI-H1975; first compound 0.4 µM) of 0.61 and a relative viability (NCI-H1975; first compound 4 µM) of 0.536. For the same molecule, the relative viability (NCI-H322M; first compound 0.04 µM) was 0.883, the relative viability (NCI-H322M; first compound 0.1265 µM) was 0.847 and the relative viability (NCI-H322M; first compound 0.4 µM) was 0.902. The relative viability (NCI-H322M; first compound 4 µM) was 0.776, the relative viability (HCC-78; first compound 0.04 µM) was 0.455 and the relative viability (HCC-78; first compound 0.1265 µM) was 0.417. It also gave a relative viability (HCC-78; first compound 0.4 µM) of 0.46, a relative viability (HCC-78; first compound 4 µM) of 0.4 and a relative viability (NCI-H2085; first compound 0.04 µM) of 0.814. It also gave a relative viability (NCI-H2085; first compound 0.1265 µM) of 0.782, a relative viability (NCI-H2085; first compound 0.4 µM) of 0.69 and a relative viability (NCI-H2085; first compound 4 µM) of 0.667. For the same molecule, the relative viability (LXF-289; first compound 0.04 µM) was 0.534, the relative viability (LXF-289; first compound 0.1265 µM) was 0.794 and the relative viability (LXF-289; first compound 0.4 µM) was 0.88. The relative viability (LXF-289; first compound 4 µM) was 0.733, the relative viability (HCC-15; first compound 0.04 µM) was 0.825 and the relative viability (HCC-15; first compound 0.1265 µM) was 0.769. It also gave a relative viability (HCC-15; first compound 0.4 µM) of 0.729, a relative viability (HCC-15; first compound 4 µM) of 0.663 and a relative viability (NCI-H522; first compound 0.04 µM) of 0.539. The relative viability (NCI-H522; first compound 0.1265 µM) was 0.696, the relative viability (NCI-H522; first compound 0.4 µM) was 0.876 and the relative viability (NCI-H522; first compound 4 µM) was 0.766. The relative viability (NCI-H2126; first compound 0.04 µM) was 0.853, the relative viability (NCI-H2126; first compound 0.1265 µM) was 0.768 and the relative viability (NCI-H2126; first compound 0.4 µM) was 0.759. The relative viability (NCI-H2126; first compound 4 µM) was 0.701, the relative viability (NCI-H1755; first compound 0.04 µM) was 0.759 and the relative viability (NCI-H1755; first compound 0.1265 µM) was 0.854. It also gave a relative viability (NCI-H1755; first compound 0.4 µM) of 0.729, a relative viability (NCI-H1755; first compound 4 µM) of 0.87 and a relative viability (UMC-11; first compound 0.04 µM) of 0.378. The relative viability (UMC-11; first compound 0.1265 µM) was 0.433, the relative viability (UMC-11; first compound 0.4 µM) was 0.441 and the relative viability (UMC-11; first compound 4 µM) was 0.366. For the same molecule, the relative viability (NCI-H1915; first compound 0.04 µM) was 0.434, the relative viability (NCI-H1915; first compound 0.1265 µM) was 0.538 and the relative viability (NCI-H1915; first compound 0.4 µM) was 0.537. It also gave a relative viability (NCI-H1915; first compound 4 µM) of 0.421, a relative viability (NCI-H2023; first compound 0.04 µM) of 0.578 and a relative viability (NCI-H2023; first compound 0.1265 µM) of 0.59. It also gave a relative viability (NCI-H2023; first compound 0.4 µM) of 0.581, a relative viability (NCI-H2023; first compound 4 µM) of 0.505 and a relative viability (NCI-H441; first compound 0.04 µM) of 0.718. It also gave a relative viability (NCI-H441; first compound 0.1265 µM) of 0.777, a relative viability (NCI-H441; first compound 0.4 µM) of 0.849 and a relative viability (NCI-H441; first compound 4 µM) of 0.625. The relative viability (COR-L 105; first compound 0.04 µM) was 0.799, the relative viability (COR-L 105; first compound 0.1265 µM) was 0.783 and the relative viability (COR-L 105; first compound 0.4 µM) was 0.926. The relative viability (COR-L 105; first compound 4 µM) was 0.875, the relative viability (ChaGo-K-1; first compound 0.04 µM) was 0.496 and the relative viability (ChaGo-K-1; first compound 0.1265 µM) was 0.778. The relative viability (ChaGo-K-1; first compound 0.4 µM) was 0.803, the relative viability (ChaGo-K-1; first compound 4 µM) was 0.72 and the relative viability (ABC-1; first compound 0.04 µM) was 0.917. It also gave a relative viability (ABC-1; first compound 0.1265 µM) of 1.14, a relative viability (ABC-1; first compound 0.4 µM) of 1.23 and a relative viability (ABC-1; first compound 4 µM) of 1.27. For the same molecule, the relative viability (CAL-12T; first compound 0.04 µM) was 0.719, the relative viability (CAL-12T; first compound 0.1265 µM) was 0.623 and the relative viability (CAL-12T; first compound 0.4 µM) was 0.739. The relative viability (CAL-12T; first compound 4 µM) was 0.377, the relative viability (NCI-H3122; first compound 0.04 µM) was 1.01 and the relative viability (NCI-H3122; first compound 0.1265 µM) was 0.84. The relative viability (NCI-H3122; first compound 0.4 µM) was 1, the relative viability (NCI-H3122; first compound 4 µM) was 1.29 and the relative viability (NCI-H358; first compound 0.04 µM) was 0.724. The relative viability (NCI-H358; first compound 0.1265 µM) was 0.589, the relative viability (NCI-H358; first compound 0.4 µM) was 0.687 and the relative viability (NCI-H358; first compound 4 µM) was 0.261. The relative viability (NCI-H1993; first compound 0.04 µM) was 0.911, the relative viability (NCI-H1993; first compound 0.1265 µM) was 0.78 and the relative viability (NCI-H1993; first compound 0.4 µM) was 0.626. For the same molecule, the relative viability (NCI-H1993; first compound 4 µM) was 0.735, the relative viability (NCI-H1666; first compound 0.04 µM) was 1.01 and the relative viability (NCI-H1666; first compound 0.1265 µM) was 1.17. It also gave a relative viability (NCI-H1666; first compound 0.4 µM) of 1.09, a relative viability (NCI-H1666; first compound 4 µM) of 0.885 and a relative viability (EPLC-272H; first compound 0.04 µM) of 0.457. The relative viability (EPLC-272H; first compound 0.1265 µM) was 0.414, the relative viability (EPLC-272H; first compound 0.4 µM) was 0.407 and the relative viability (EPLC-272H; first compound 4 µM) was 0.307.

Reference: the supplement of paper PMC10307832
